Results published in the NIST ThermoML archive (doi:10.1016/j.jct.2007.04.011).
± gives the expanded uncertainty stated by the source.

Tests used:
[1] = molar heat capacity at constant pressure; details: 101.33 kPa, Liquid
[2] = 298.15 K, 101.33 kPa, Liquid
[3] = xn = mol fraction of the nth substance listed; details: 101 kPa, Liquid, Small sample (50 mg) DSC

Row | Structure (SMILES) | molar heat capacity at constant pressure ([1]; 293.15 K) [J/K/mol] | molar heat capacity at constant pressure ([1]; 298.15 K) [J/K/mol] | molar heat capacity at constant pressure ([1]; 303.15 K) [J/K/mol] | molar heat capacity at constant pressure ([1]; 308.15 K) [J/K/mol] | molar heat capacity at constant pressure ([1]; 313.15 K) [J/K/mol] | molar heat capacity at constant pressure ([1]; 318.15 K) [J/K/mol] | molar heat capacity at constant pressure ([1]; 323.15 K) [J/K/mol] | molar heat capacity at constant pressure ([1]; 328.15 K) [J/K/mol] | molar heat capacity at constant pressure ([1]; 333.15 K) [J/K/mol] | molar heat capacity at constant pressure ([1]; 338.15 K) [J/K/mol] | molar heat capacity at constant pressure ([1]; 343.15 K) [J/K/mol] | molar heat capacity at constant pressure ([1]; 348.15 K) [J/K/mol] | molar heat capacity at constant pressure ([1]; 353.15 K) [J/K/mol] | mass density [2] [kg/m3] | further results
1 | OCCCCO [1,4-butanediol] | 200.39 ± 1.7 | 203.06 ± 1.8 | 205.82 ± 1.8 | 208.65 ± 1.8 | 211.57 ± 1.8 | 214.55 ± 1.9 | 217.61 ± 1.9 | 220.72 ± 1.9 | 223.9 ± 1.9 | 227.12 ± 2 | 230.4 ± 2 | 233.72 ± 2 | 237.07 ± 2 | 1012.75 ± 0.54 | 
2 | CC(O)CC(C)(C)O (stereo unspecified) [2-methyl-2,4-pentanediol] |  | 263.09 ± 2 | 267.1 ± 2.1 | 271.31 ± 2.1 | 275.53 ± 2.1 | 279.94 ± 2.2 | 284.5 ± 2.2 | 289.17 ± 2.2 | 293.9 ± 2.3 | 298.68 ± 2.3 | 303.35 ± 2.4 |  | 313.68 ± 2.4 |  | mass density ([2]; Vibrating tube method): 918.22 ± 0.3 kg/m3
3 | OCCCCO [1,4-butanediol] + CCCCO |  |  |  |  |  |  |  |  |  |  |  |  |  |  | excess molar heat capacity ([3]; 293.15 K, x1 = 0.0804): 0.031 ± 0.15 J/K/mol; excess molar heat capacity ([3]; 293.15 K, x1 = 0.1099): 0.095 ± 0.16 J/K/mol; excess molar heat capacity ([3]; 293.15 K, x1 = 0.1826): 0.129 ± 0.16 J/K/mol; excess molar heat capacity ([3]; 293.15 K, x1 = 0.2497): 0.127 ± 0.16 J/K/mol; excess molar heat capacity ([3]; 293.15 K, x1 = 0.3244): 0.089 ± 0.16 J/K/mol; excess molar heat capacity ([3]; 293.15 K, x1 = 0.5919): 0.005 J/K/mol; excess molar heat capacity ([3]; 298.15 K, x1 = 0.1099): 0.096 ± 0.16 J/K/mol; excess molar heat capacity ([3]; 298.15 K, x1 = 0.1826): 0.011 J/K/mol; excess molar heat capacity ([3]; 298.15 K, x1 = 0.2497): 0.093 ± 0.16 J/K/mol; excess molar heat capacity ([3]; 298.15 K, x1 = 0.3244): 0.016 ± 0.15 J/K/mol; excess molar heat capacity ([3]; 303.15 K, x1 = 0.1099): 0.055 ± 0.16 J/K/mol; excess molar heat capacity ([3]; 303.15 K, x1 = 0.2497): 0.025 ± 0.15 J/K/mol

Second part, led by results:

Row | molar heat capacity at constant pressure ([1]; 293.15 K) [J/K/mol] | molar heat capacity at constant pressure ([1]; 298.15 K) [J/K/mol] | molar heat capacity at constant pressure ([1]; 303.15 K) [J/K/mol] | molar heat capacity at constant pressure ([1]; 308.15 K) [J/K/mol] | molar heat capacity at constant pressure ([1]; 313.15 K) [J/K/mol] | molar heat capacity at constant pressure ([1]; 318.15 K) [J/K/mol] | molar heat capacity at constant pressure ([1]; 323.15 K) [J/K/mol] | molar heat capacity at constant pressure ([1]; 328.15 K) [J/K/mol] | molar heat capacity at constant pressure ([1]; 333.15 K) [J/K/mol] | molar heat capacity at constant pressure ([1]; 338.15 K) [J/K/mol] | molar heat capacity at constant pressure ([1]; 343.15 K) [J/K/mol] | molar heat capacity at constant pressure ([1]; 348.15 K) [J/K/mol] | molar heat capacity at constant pressure ([1]; 353.15 K) [J/K/mol] | mass density [2] [kg/m3] | Structure (SMILES) | further results
4 | 173.8 ± 1.5 | 177.1 ± 1.5 | 180.61 ± 1.6 | 184.28 ± 1.6 | 188.02 ± 1.6 | 192.1 ± 1.7 | 196.13 ± 1.7 | 200.4 ± 1.7 | 204.72 ± 1.8 | 209.16 ± 1.8 | 213.57 ± 1.9 | 218.1 ± 1.9 | 222.54 ± 1.9 | 805.77 ± 0.29 | CCCCO [butan-1-ol] | 
5 |  | 236.67 ± 2 | 239.28 ± 2.1 | 241.85 ± 2.1 | 244.35 ± 2.1 | 246.82 ± 2.1 | 249.23 ± 2.2 | 251.6 ± 2.2 | 253.91 ± 2.2 | 256.17 ± 2.2 | 258.39 ± 2.2 | 260.55 ± 2.3 | 262.67 ± 2.3 | 1000.4 ± 0.5 | CC(O)C(C)O (stereo unspecified) [2,3-butanediol] | 
6 | 228.22 ± 2 | 230.94 ± 2 | 233.64 ± 2 | 236.32 ± 2 | 238.97 ± 2.1 | 241.59 ± 2.1 | 244.18 ± 2.1 | 246.72 ± 2.1 | 249.2 ± 2.2 | 251.63 ± 2.2 | 254 ± 2.2 | 256.29 ± 2.2 | 258.5 ± 2.2 | 998.408 ± 0.5 | CCC(O)CO (stereo unspecified) [1,2-butanediol] | molar heat capacity at constant pressure ([1]; 288.15 K): 225.51 ± 1.9 J/K/mol; molar heat capacity at constant pressure ([1]; 358.15 K): 260.63 ± 2.3 J/K/mol
